What was measured:
[1] = test system: SH SY5Y cells; experiment: Cell viability assay for amyloid toxicity using MTT reduction; assay type: cell-based; conditions: protection of SH SY5Y cells from a toxic insult of 10µM Aβ(1-42), MTT reduction as measure of cell viability, 24 h incubation
Protocol: Aβ(1-42) was prepared for amyloid aggregation and toxicity assays by dissolving Aβ(1-42) HCl salt in hexafluoroisopropanol (HFIP), with brief sonication and vortexing. This solution of the Aβ(1-42) peptide in HFIP was stored at 4°C @ 2mM. When required, an aliquot of this stock solution was freeze-dried and dissolved in DMSO to 200 times the required final assay concentration (e.g. 2mM for a final assay concentration of 10 µM).
A 20mM stock solution of each test compound was prepared in DMSO, and aliquots of these solutions were used to prepare further stock solutions of each test compound in DMSO, ranging in concentration from 3µM up to 10mM. These stock solutions were prepared for use as and when required and stored at -20°C (maximum of 3 freeze-thaw cycles). The 20mM parent stock solutions were stored frozen at -20 °C.
The activity of compounds in protecting SH SY5Y cells from a toxic insult of 10µM Aβ(1-42) was assessed by using inhibition of MTT reduction as a measure of cell viability. An aliquot (3µl) of test compound [various concentrations] in DMSO is added to 294 µl of Opti-Mem (containing 2% FBS, 1% Pen/Strep, 1% L-Gln) {daughter plate}. The well is mixed thoroughly. Then an aliquot (3 µl) of Aβ(1-42) [2mM] is added to the daughter plate wells and again mixed thoroughly. 50 µl is then aspirated and dispensed into wells containing 50 µl media + SH SY5Ycells (cells are also plated in Opti-Mem, at ∼ 30,000 cells/well/50 µl). […]
Cell plates are incubated for 24 h and then the MTT assay (Shearman, 1999), is performed. […] The plate was shaken and the absorbance was recorded at both 570 nm and 650 nm. ΔA values were calculated by subtracting absorbance at 650 nm from absorbance at 570 nm, to reduce non-specific background absorbance. ΔA values from equivalent experiments were averaged and % cell viability was determined as follows: % cell viability = ([ΔA(sample)-ΔA(deal cell control)] x 100%)/([ΔA(live cell control)-ΔA(dead cell control)]) [formula] • Live cell controls: 1% DMSO in Opti-Mem • Dead cell controls: 0.1% Triton X-100 added to cells […]

[2] = test system: rat hippocampal brain slices; experiment: Long-term potentiation (LTP) in hippocampal brain slices, Aβ(1-42)-induced depression of LTP; conditions: compound at 3µM, Schaffer collateral stimulation
Protocol: Long-term potentiation (LTP) is a natural, prolonged electrophysiological response associated with the neurological processes of learning and short-term memory, which are affected in Alzheimer's disease. […] LTP was measured using stimulation of Schaffer collaterals in rat hippocampal brain slices, as described below.
20µL of 5mM Example 1 in DMSO was added to the stock Aβ(1-42) (1mL) and agitated at 37°C for 24hr. On the experimental day the mixture is diluted to 33mL in aCSF (32mL) immediately prior to use. The final concentration of Example 1 was 3µM. The final concentration of Aβ(1-42) was 1µM and the final concentration of DMSO was 0.06% […]
Schaffer collaterals were stimulated (3-22V, 0.1ms pulse width, 0.03Hz) with a concentric bipolar electrode and the evoked extracellular field excitatory postsynaptic potentials (fEPSPs) were recorded via an Axoclamp 2A amplifier from the stratum radiatum of the CA1 region of the hippocampus with a glass capillary microelectrode filled with 4M NaCl (resistance 2-4 MΩ). […] A 10 minute stable baseline period (control) was recorded followed by administration of test compound 10 minutes prior to high frequency stimulation (1sec 100Hz train) applied three times at 10 minute intervals with an 80 minute wash of test compound after the final high frequency stimulation protocol. […]

Compound: Fc1cccc2c1OCCN2c1ncc(Oc2cccc(N3CCOCC3)c2)cn1 [Example 1, 8-Fluoro-4-[5-(3-morpholinophenoxy)pyrimidin-2-yl]-3,4-dihydro-2H-benzo[1,4]oxazine]
- IC50 ([1]; Homo sapiens): 23 µM
- toxic effect of 1µM Aβ(1-42) on LTP [2]: effectively blocked

Compound: Fc1ccc2c(c1)N(c1ncc(Oc3cccc(N4CCOCC4)c3)cn1)CCO2 [Example 2, 6-Fluoro-4-[5-(3-morpholinophenoxy)pyrimidin-2-yl]-3,4-dihydro-2H-benzo[1,4]oxazine]
- IC50 ([1]; Homo sapiens): 26 µM

Compound: Oc1cccc(Nc2ccc(Nc3cccc(O)c3)nn2)c1 [RS-0406, reference compound]
- IC50 [1]: 35 µM
